Source: patent publication US20150218212A1, “FLUORINATED EPOXYKETONE-BASED TETRAPEPTIDE COMPOUNDS AND USES THEREOF AS PROTEASOME INHIBITORS” (FLUORINOV PHARMA INC., priority 2012, published 2015)

Tests used:
Type in all cases: cell-based, human
[1] = test system: 786-0; experiment: NCI screening panel, 786-0 (Renal Cancer)
Experimental: (§1) Representative compounds of Formula I were screened using the National Cancer Institute (NCI) screening panel, which consists of a panel of human tumor cell lines, representing leukemia, melanoma, and cancers of the lung, colon, ovary, breast, prostate and renal system.
(§2) After 24 h, two plates of each cell line are fixed in situ with TCA, to represent a measurement of the cell population for each cell line at the time of drug addition (Tz). Experimental drugs are solubilised in dimethyl sulfoxide at 400-fold the desired final maximum test concentration and stored frozen prior to use. At the time of drug addition, an aliquot of frozen concentrate is thawed and diluted to twice the desired final maximum test concentration with complete medium containing 50 μg/mL gentamicin. Additional four, 10-fold or ½ log serial dilutions are made to provide a total of five drug concentrations plus control. Aliquots of 100 μl of these different drug dilutions are added to the appropriate microtiter wells already containing 100 μl of medium, resulting in the required final drug concentrations.
(§3) Following drug addition, the plates are incubated for an additional 48 h at 37° C., 5% CO2, 95% air, and 100% relative humidity. For adherent cells, the assay is terminated by the addition of cold TCA (trichloroacetic acid). Cells are fixed in situ by the gentle addition of 50 μl of cold 50% (w/v) TCA (final concentration, 10% TCA) and incubated for 60 minutes at 4° C. The supernatant is discarded, and the plates are washed five times with tap water and air dried. Sulforhodamine B (SRB) solution (100 μl) at 0.4% (w/v) in 1% acetic acid is added to each well, and plates are incubated for 10 minutes at room temperature. After staining, unbound dye is removed by washing five times with 1% acetic acid and the plates are air dried. Bound stain is subsequently solubilised with 10 mM trizma base, and the absorbance is read on an automated plate reader at a wavelength of 515 nm. For suspension cells, the methodology is the same except that the assay is terminated by fixing settled cells at the bottom of the wells by gently adding 50 μl of 80% TCA (final concentration, 16% TCA). Using the seven absorbance measurements [time zero, (Tz), control growth, (C), and test growth in the presence of drug at the five concentration levels (Ti)], the percentage growth is calculated at each of the drug concentrations levels. Percentage growth inhibition is calculated as: [(Ti−Tz)/(C−Tz)]×100 for concentrations for which Ti>/=Tz and [(Ti−Tz)/Tz]×100 for concentrations for which Ti<Tz.
(§4) Three dose response parameters are calculated for each experimental agent. Growth inhibition of 50% (GI50) is calculated from [(Ti−Tz)/(C−Tz)]×100=50, which is the drug concentration resulting in a 50% reduction in the net protein increase (as measured by SRB staining) in control cells during the drug incubation. The drug concentration resulting in total growth inhibition (TGI) is calculated from Ti=Tz. The LC50 (concentration of drug resulting in a 50% reduction in the measured protein at the end of the drug treatment as compared to that at the beginning) indicating a net loss of cells following treatment is calculated from [(Ti−Tz)/Tz]×100=−50. Values are calculated for each of these three parameters if the level of activity is reached. However, if the effect is not reached or is exceeded, the value for that parameter is expressed as greater or less than the maximum or minimum concentration tested.

[2] = test system: T-47D; experiment: NCI screening panel, T-47D (Breast Cancer)
Experimental: as §1, §2, §3, §4

[3] = test system: MDA-MB-468; experiment: NCI screening panel, MDA-MB-468 (Breast Cancer)
Experimental: as §1, §2, §3, §4

[4] = test system: SK-MEL-5; experiment: NCI screening panel, SK-MEL-5 (Melanoma)
Experimental: as §1, §2, §3, §4

[5] = test system: UO-31; experiment: NCI screening panel, UO-31 (Renal Cancer)
Experimental: as §1, §2, §3, §4

[6] = test system: SK-MEL-2; experiment: NCI screening panel, SK-MEL-2 (Melanoma)
Experimental: as §1, §2, §3, §4

[7] = test system: NCI-H226; experiment: NCI screening panel, NCI-H226 (Non-Small Cell Lung Cancer)
Experimental: as §1, §2, §3, §4

[8] = test system: HCC-2998; experiment: NCI screening panel, HCC-2998 (Colon Cancer)
Experimental: as §1, §2, §3, §4

[9] = test system: U251; experiment: NCI screening panel, U251 (CNS Cancer)
Experimental: as §1, §2, §3, §4

[10] = test system: DU-145; experiment: NCI screening panel, DU-145 (Prostate Cancer)
Experimental: as §1, §2, §3, §4

Row | Compound | Log10GI50 [1] | Log10LC50 [1] | Log10TGI50 [1] | Log10GI50 [2] | Log10TGI50 [2] | Log10GI50 [3] | Log10LC50 [3] | Log10TGI50 [3] | Log10GI50 [4] | Log10LC50 [4] | Log10TGI50 [4] | Log10GI50 [5] | Log10LC50 [5] | Log10TGI50 [5] | Log10GI50 [6] | Log10LC50 [6] | Log10TGI50 [6] | Log10GI50 [7] | Log10LC50 [7] | Log10TGI50 [7] | other results
1 | CC(C)C[C@H](NC(=O)[C@H](COC(F)F)NC(=O)CN1CCOCC1)C(=O)N[C@@H](COC(F)F)C(=O)N[C@@H](CC(C)C)C(=O)[C@@]1(C)CO1 [Example 1, (2S)—N-[(1S)-1-(difluoromethoxymethyl)-2-[[(1S)-3-methyl-1-[(2R)-2-methyloxirane-2-carbonyl]butyl]amino]-2-oxo-ethyl]-2-[[(2S)-3-(difluoromethoxy)-2-[(2-morpholinoacetyl)amino]propanoyl]amino]-4-methyl-pentanamide] | −6.60 | −5.05 | −5.84 | −7.94 | −7.53 | −7.55 | >−4.00 | −6.89 | −7.55 | −6.30 | −6.97 | −5.70 | >−4.00 | −4.86 | −7.60 | >−4.00 | −7.03 | −7.73 | −7.07 | −7.40 | Log10LC50 [2]: −7.11; Log10GI50 [8]: −7.74; Log10LC50 [8]: −7.16; Log10TGI50 [8]: −7.45; Log10GI50 [9]: −7.58; Log10LC50 [9]: >−4.00; Log10TGI50 [9]: −6.75; Log10GI50 [10]: −7.25; Log10LC50 [10]: >−4.00; Log10TGI50 [10]: −4.66
2 | CC(C)C[C@H](NC(=O)[C@H](COC(F)F)NC(=O)CN1CCOCC1)C(=O)N[C@@H](Cc1ccccc1)C(=O)N[C@@H](CC(C)C)C(=O)[C@@]1(C)CO1 [Example 2, (2S)-N-[(1S)-1-benzyl-2-[[(1S)-3-methyl-1-[(2R)-2-methyloxirane-2-carbonyl]butyl]-amino]-2-oxo-ethyl]-2-[[(2S)-3-(difluoromethoxy)-2-[(2-morpholinoacetyl)amino]propanoyl]amino]-4-methyl-pentanamide] | −7.09 | >−4.00 | −6.01 | <−8.00 | −7.55 | −7.75 | −4.63 | −7.13 | −7.53 | −6.23 | −6.94 | −6.49 | −5.01 | −5.80 | −7.66 | >−4.00 | −7.06 | −7.83 | −7.12 | −7.48 | Log10GI50 [8]: −7.77; Log10LC50 [8]: −7.15; Log10TGI50 [8]: −7.46; Log10GI50 [9]: −7.72; Log10LC50 [9]: −5.63; Log10TGI50 [9]: −6.87; Log10GI50 [10]: −7.34; Log10LC50 [10]: >−4.00; Log10TGI50 [10]: −5.00
3 | CC(C)C[C@H](NC(=O)[C@H](COC(F)F)NC(=O)CN1CCOCC1)C(=O)N[C@@H](Cc1ccccc1)C(=O)N[C@@H](Cc1ccccc1)C(=O)[C@@]1(C)CO1 [Example 3, (2S)-N-[(1S)-1-benzyl-2-[[(1S)-1-benzyl-2-[(2R)-2-methyloxiran-2-yl]-2-oxo-ethyl]amino]-2-oxo-ethyl]-2-[[(2S)-3-(difluoromethoxy)-2-[(2-morpholinoacetyl)-amino]propanoyl]amino]-4-methyl-pentan-amide] | −7.22 | −4.14 | −5.77 | <−8.00 | −7.59 | <−8.00 | −6.09 | −7.34 | −7.71 | −6.43 | −7.19 | −6.65 | −5.08 | −5.91 | −7.92 | >−4.00 | −7.19 | <−8.00 | −7.24 | −7.92 | Log10GI50 [8]: −7.78; Log10LC50 [8]: −7.18; Log10TGI50 [8]: −7.48; Log10GI50 [9]: <−8.00; Log10LC50 [9]: −5.14; Log10TGI50 [9]: −6.79; Log10GI50 [10]: <−8.00; Log10LC50 [10]: −4.48; Log10TGI50 [10]: −5.79
4 | CC(C)C[C@H](NC(=O)[C@H](COC(F)F)NC(=O)CN1CCOCC1)C(=O)N[C@@H](COC(F)F)C(=O)N[C@@H](Cc1ccccc1)C(=O)[C@@]1(C)CO1 [Example 4, (2S)-N-[(1S)-2-[[(1S)-1-benzyl-2-[(2R)-2-methyloxiran-2-yl]-2-oxo-ethyl]amino]-1-(difluoromethoxymethyl)-2-oxo-ethyl]-2-[[(2S)-3-(difluoromethoxy)-2-[(2-mor-pholinoacetyl)amino]propanoyl]amino]-4 methyl-pentanamide] | −6.44 | −4.27 | −5.58 | −7.68 | −7.08 | −7.35 | >−4.00 | −6.37 | −7.33 | −5.71 | −6.60 | −5.77 | −4.22 | −5.24 | −7.57 | >−4.00 | −6.86 | −7.66 | −6.57 | −7.30 | Log10GI50 [8]: −7.29; Log10LC50 [8]: −6.30; Log10TGI50 [8]: −6.75; Log10GI50 [9]: −7.44; Log10LC50 [9]: −4.62; Log10TGI50 [9]: −6.48; Log10GI50 [10]: −7.19; Log10LC50 [10]: >−4.00; Log10TGI50 [10]: −4.91
5 | CC(C)C[C@H](NC(=O)[C@H](COC(F)F)NC(=O)[C@H](COC(F)F)NC(=O)[C@H](CCc1ccccc1)NC(=O)CN1CCOCC1)C(=O)[C@@]1(C)CO1 [Example 7, (2S)-N-[(1S)-1-(difluoromethoxymethyl)-2-[[(1S)-1-(difluoromethoxymethyl)-2-[[(1S)-3-methyl-1-[(2R)-2-methyloxirane-2-carbo-nyl]butyl]amino]-2-oxo-ethyl]amino]-2-oxo-ethyl]-2-[(2-morpholinoacetyl)amino]-4-phenyl-butanamide] | −6.45 | >−4.00 | −5.33 | −7.85 | −7.32 | −7.58 | −4.78 | −7.09 | −7.55 | −6.35 | −6.99 | −5.97 | −4.70 | −5.45 | −7.54 | >−4.00 | −6.86 | −7.75 | −7.08 | −7.41 | Log10LC50 [2]: >−4.00; Log10GI50 [8]: −7.60; Log10LC50 [8]: −6.55; Log10TGI50 [8]: −7.21; Log10GI50 [9]: −7.63; Log10LC50 [9]: −5.04; Log10TGI50 [9]: −6.79; Log10GI50 [10]: −7.42; Log10LC50 [10]: >−4.00; Log10TGI50 [10]: −4.75
